{"source": "patent US20250122193A1", "about": "“NOVEL PYRIDOCARBAZOLIUM COMPOUNDS AND MEDICAL USES THEREOF” (MyCural Therapeutics, priority 2021, published 2025)", "key": {"[1]": {"target": "T1, homodimerization of the bZip protein GCN4 (Saccharomyces cerevisiae, UniProt P03069)", "T1 construct": "replacing the existing Zip-gene (GCN4); expressed in transfected cells; host or cells: HeLa", "T1 sequence (P03069 253-274 limits assumed)": "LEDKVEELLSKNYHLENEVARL", "test": "split Gaussia luciferase (GLuc) assay, GCN4:GCN4", "assay_type": "cell-based", "conditions": "6.5 μM", "procedure": "FIG. 1: MYCMI-7 (Compound Example 1) inhibits the MYC:MAX interaction in cells, bind MYC in vitro, and blocks MYC function. A) Molecular structure of MYCMI-7. B-E) split Gaussia luciferase (GLuc) assay. MYC or MYCN and MAX Gluc constructs were co-transfected into HeLa cells together with a firefly luciferase vector. 24 hours post transfection cells were treated with compounds, and after another 17-24 hours cells were harvested and both GLuc and firefly luciferase activities were measured. The mean of three different experiments is shown. […] G) Quantification of isPLA dots. […] J) MYC target gene ODC1 expression after treatment with 5 μM MYCMI-7, quantified by qPCR. […] L) Recombinant MYC bHLHZip protein domain immobilized onto a CM5 chip was subjected to various concentrations of MYCMI-7 and the complex of MYCbHLHZip-MYCMI-7 was measured as response units by SPR. […]\n0.2-0.4 μg of each GLuc-construct together with 0.05 μg pCMV-LUC (firefly luciferase) were used per transfection in 12 well plates. […] After 60 min incubation at room temperature 20 μM D-luciferin was added (substrate of Firefly luciferase) and luminescence was measured in a Lumat LB9501 (Berthold) or OmegaFluostar (BMG Labtech) luminometer. Directly after, Gaussia luciferase substrate Coelenterazine (Promega) was added to a final concentration of 20 μM in a mixture with “Stop n' Glow” (Promega) and the luciferase activity was measured. […]"}, "[2]": {"target": "T2, FRA1:JUN interaction (Homo sapiens, UniProt P05412+P15407)", "T2 construct": "endogenous in cells; host or cells: MCF7", "test": "in situ proximity ligation assay (isPLA), FRA1:JUN", "assay_type": "cell-based", "conditions": "5 μM, 24 hours, MCF-7 cells"}, "[3]": {"test_system": "Burkitt's lymphoma cell lines", "test": "growth of Burkitt's lymphoma cell lines", "assay_type": "cell-based", "procedure": "Cell culture and transfection: HeLa, MCF7, MDA-MB-231, U20S, HCT116, SK-N-F1, SK-N-RA, SK-N-AS, COS-7, Rat1 fibroblasts (Tgrl, H015.19 and HOMYC3), primary rat embryonic fibroblasts (REFs) were maintained in DMEM and Kelly, IMR-32, SK-N-DZ, P493-6, Daudi, CA46 and Ramos were kept in RPMI. In addition, the medium for H015.19 and primary REFs contained 1% sodium pyruvate. […] U20S-MYC-ER cell lines were cultured in phenol-red free DMEM and treated with 100 nM 4-hydroxytamoxifen (4-OHT) (Sigma-Aldrich) to activate MYC-ER. […] Transfection of HeLa cells was performed using Lipofectamine 2000 reagent (Invitrogen) according to manufacturer's instructions. For transfection of 293-T, U20S and REFs, FuGene6 (ROCHE) was used in accordance with manufacturer's recommendations. The proteasome inhibitor Z-leu-leu-leu-H aldehyde ([…]) (Peptides International) was used at 40 μM concentration."}, "[4]": {"test_system": "normal REFs", "test": "apoptosis assay (Cell Death Detection ELISA), normal REFs", "assay_type": "cell-based, rat", "conditions": "5 μM, 24 and 48 hours", "procedure": "(§1) FIG. 4: MYCMI-7 induces apoptosis in malignant cells and growth arrest in normal cells. A) Cell cycle distribution analysis by flow cytometry of MYC-regulated P493-6 cells and normal rat embryo fibroblasts (REFs). Left panel, P493-6 synchronized in G0 by 24 hours treatment of […] doxycycline. Doxycycline was removed and the cells were harvested 48 hours after the addition of fresh medium containing DMSO or 5 μM MYCMI-7. Right panel, flow cytometry analysis of normal REFs treated with DMSO or 5 μM MYCMI-7. B) Apoptosis assay using the Cell Death Detection ELISA^plus kit. Left panel, immortalized Rat1 fibroblasts with different MYC status after 24 hours of 5 μM MYCMI-7 treatment, middle panel and right panels, normal REFs and normal peripheral blood lymphocytes, respectively, after 24 and 48 hours of 5 μM MYCMI-7 treatment. C) Measurement of viability and apoptosis by Apo-Tox Glo Triplex assay in A375 melanoma cells after 3 days of treatment with MYCMI-7 with the indicated concentrations. […] E) NHDFs treated with 3 μM MYCMI-7 for 72 hrs. Viability was measured by trypan blue exclusion assay. F) Cell growth measured with Cyt62 assay of primary normal human epidermal melanocytes (NHEM) treated for 72 hours with MYCMI-7, G) Viability measured by trypan blue exclusion assay of NHEM after treatment for 72 hours with MYCMI-7."}, "[5]": {"test_system": "normal human peripheral blood lymphocytes", "test": "apoptosis assay (Cell Death Detection ELISA), peripheral blood lymphocytes", "assay_type": "cell-based", "conditions": "5 μM, 24 and 48 hours", "procedure": "as §1"}, "[6]": {"test_system": "Normal human dermal fibroblasts (NHDF)", "test": "resazurin, cell count and trypan blue, NHDF", "assay_type": "cell-based", "procedure": "as §1"}, "[7]": {"test_system": "MDA-MB-231 xenograft tumors", "test": "MDA-MB-231 xenograft", "method": "(§2) A) Tumor growth of MDA-MB-231 xenografts in mice injected with 6.25 mg/kg MYCMI-7 or vehicle intratumorally twice a week until sacrificed. Tumor growth was monitored by measuring tumor size (mm^3) every 4th day. B) Survival curve of the mice in A) sacrificed when the tumors reached a volume of 1000 mm^3. C) Immunohistochemistry staining for MYC and apoptosis marker caspase 3 in MDA-MB-231 tumor tissue from vehicle- and MYCMI-7 treated animals at end point, D) Immunofluorescence staining of proliferation and apoptosis markers Ki67 and TUNEL, respectively, in MDA-MB-231 xenograft tumor tissue from vehicle- and MYCMI-7 treated animals at end point. E) MYCN-amplified SK-N-DZ neuroblastoma xenograft mice injected with 6.25 mg/kg MYCMI-7 or vehicle intratumorally twice a week until sacrificed. Tumor growth was monitored by measuring tumor volume (ml) daily. F) Survival curve of mice in E) sacrificed at a tumor volume of 1500 mm^3. G-H) H&E (G) and MYCN IHC (H) stainings of SK-N-DZ xenograft tumor tissue from vehicle- and MYCMI-7 treated animals at end point. A-H) At the end points, the last injection was done 3 hrs before sacrifice. Images were taken at 10× or 40× magnification.\n(§3) For the xenograft transplantation mouse tumor models of breast cancer and neuroblastoma, 6-8 weeks old NOD/SCID mice (Taconic) or NMRI nu/nu (Scanbur) were injected s.c. with 5×10^6 MDA-MB-231 breast cancer cells or MYCN-amplified SK-N-DZ neuroblastoma cells. When tumors reached a size of 100-200 mm^3, mice started receiving treatment (6.25 mg/kg MYCMI-7) administered intratumorally (50 ml) twice per week. The last dose was administered 3 hrs before termination. Mice were sacrificed when the tumors had reached as size of 1000 mm^3 (MDA-MB-231) or 1500 mm^3 (SK-N-DZ). Tumors were collected and frozen in OCT (Cryomount, Histolab) or fixed in buffered 4% formaldehyde solution (Histolab) and paraffin-embedded.\n(§4) Immunohistochemistry andimmunofluorescence: Apoptosis was visualized at the single-cell level on tumor cryosections using the TUNEL method using the In Situ Cell Death Detection Fluorescein-Roche kit and analyzed by fluorescence microscopy. Briefly, tumor cryosections were fixed in 4% paraformaldyde (PFA) and the assay was performed following the instructions from the manufacturer. Negative controls were run using the reagent without the TdT enzyme. Samples were mounted using Vectashield mounting medium (Vector) and DAPI was used as nuclear counterstaining. […] Visualization and image acquisition was done in a Zeiss microscope, and for panoramic views by a Vectra imaging system. For quantification, areas with positive TUNEL and Ki67 staining were measured using Image J software."}, "[8]": {"test_system": "MYCN-amplified SK-N-DZ neuroblastoma xenograft", "test": "SK-N-DZ neuroblastoma xenograft", "method": "as §2, §3, §4"}, "[9]": {"test": "oxidative metabolism in mouse liver microsomes", "from_the_text": "First, we performed a pharmacokinetic study of the behavior of the molecule in mice."}, "[10]": {"conditions": "6.25 mg/kg intratumoral twice weekly"}, "[11]": {"conditions": "6.25 mg/kg intratumoral twice a week"}}, "data": [{"smiles": "CCN(CC)CC[n+]1ccc2c(C)c3[nH]c4ccccc4c3c(C)c2c1", "note": "[MYCMI-7, 2-(5,11-Dimethyl-6H-25-pyrido[4,3-b]carbazol-2-yl)-N,N-diethylethanamine bromide]", "values": [{"measurement": "effect on homodimerization of GCN4 (GCN4:GCN4 GLuc)", "setting": "[1]", "value": "did not have any significant effect"}, {"measurement": "inhibition of FRA1:JUN interaction (isPLA)", "setting": "[2]", "value": "not"}, {"measurement": "growth of three Burkitt's lymphoma cell lines", "setting": "[3]", "value": "strongly reduced growth"}, {"measurement": "apoptosis", "setting": "[4]", "value": "did not induce apoptosis"}, {"measurement": "apoptosis", "setting": "[5]", "value": "did not induce apoptosis"}, {"measurement": "cell number and metabolic activity normalized to DMSO", "setting": "[6]; 3 days, low micromolar concentrations", "value": "lower overall cell number and metabolic activity"}, {"measurement": "cell viability (trypan blue)", "setting": "[6]; 72 hrs", "value": "unaffected"}, {"measurement": "survival", "setting": "[7]; [10]", "value": "significantly increased survival"}, {"measurement": "tumor growth", "setting": "[7]; [10]", "value": "slowed down considerably"}, {"measurement": "H&E staining of tumor areas", "setting": "[7]; mouse, in vivo", "value": "extensive necrosis/apoptosis"}, {"measurement": "MYC expression in tumors (IHC)", "setting": "[7]; mouse, in vivo", "value": "reduced expression of MYC"}, {"measurement": "TUNEL staining", "setting": "[7]; mouse, in vivo", "value": "increased TUNEL staining"}, {"measurement": "caspase 3 expression in tumors (IHC)", "setting": "[7]; mouse, in vivo", "value": "increased caspase 3 expression"}, {"measurement": "proliferation and microvascular density (Ki67, CD31)", "setting": "[7]; mouse, in vivo", "value": "reduced proliferation and microvascular density"}, {"measurement": "survival", "setting": "[8]; [11]", "value": "significantly increased survival"}, {"measurement": "tumor growth", "setting": "[8]; [11]", "value": "reduced tumor growth"}, {"measurement": "H&E staining of tumor tissue", "setting": "[8]; mouse, in vivo", "value": "massive apoptosis and/or necrosis as well as hemorrhage"}, {"measurement": "MYCN expression in tumor cells (IHC)", "setting": "[8]; mouse, in vivo", "value": "strong reduction in MYCN expression"}, {"measurement": "stability against oxidative metabolism", "setting": "[9]", "value": "stable"}]}]}
